Laboratory results taken from article PMC11288129, “Diversely evolved xibalbin variants from remipede venom inhibit potassium channels and activate PKA-II and Erk1/2 signaling” (BMC Biology, 2024).
Marks after values point to notes of the source that are not given here. Positions of bridges follow the written chain, without caps; N, C: chain ends. No end group written: not given here.

How the values were obtained:
hKv10.1 = assay: TEVC inhibition, Kv10.1; assay type: cell-based, human; set-up: unit not given here; details: 1 µM
Excerpt: (§1) For the expression of Kv channels rat Kv1.1 (GenBank accession number: NM_173095 [88, 89]), rKv1.2 (NM_012970 [90, 91]), human Kv1.3 (NM_002232 [92, 93]), rKv1.4 (NM_012971 [94, 95]), rKv1.6 (NM_023954 [96, 97]), hKv2.1 (NM_004975 [98, 99]), hKv3.1 (NM_004976 [100, 101]), rKv4.2 (NM_031739 [102, 103]), hKv10.1 (NM_172362 [104, 105]), hERG1 [Kv11.1, (NM_000238 [106, 107])], and Shaker IR [from Drosophila melanogaster, (NM_167595 [108, 109])], Nav channels [rNav1.2 (NM_012647 [42, 110]), rNav1.4 (NM_013178 [111, 112]), hNav1.5 (NM_198056 [113, 114]), mNav1.6 (NM_001077499 [115, 116]), BgNav [from Blattella germanica, (DQ466887 [117, 118])] and the auxiliary subunits rβ1 (NM_001271045 [119, 120]), hβ1 (NM_001037 [121, 122]), and TipE [from D. melanogaster, (NM_079196 [109, 123])], and Cav channels hCav3.1 [124, 125], hCav3.2 [126, 127], and hCav3.3 [128, 129] in Xenopus oocytes, the linearized plasmids were transcribed using the T7 or SP6 mMESSAGEmMACHINE transcription kit (Ambion, Austin, TX, USA). Mature female animals were purchased from Nasco (Fort Atkinson, USA) and were housed in the Aquatic Facility (KU Leuven) in compliance with the regulations of the European Union (EU) concerning the welfare of laboratory animals as declared in Directive 2010/63/EU. The use of X. laevis oocytes was approved by the Animal Ethics Committee of the KU Leuven with the license number P186/2019. Stage V–VI oocytes were collected from anesthetized female X. laevis frog as previously described, with the frogs anesthetized by placement in 0.1% tricaine solution (amino benzoic acid ethyl ester; Merck, USA). Oocyte microinjection was performed using a microinjector (Drummond Scientifc®, USA), with a programmed cRNA injection volume of 4—50 nL, depending on the channel subtype. The oocytes were incubated in ND96 solution (96 mM NaCl, 2 mM KCl, 1.8 mM CaCl2, 2 mM MgCl2, and 5 mM HEPES, pH 7.4), supplemented with 50 mg/l gentamicin sulfate.
(§2) Electrophysiological measurements were performed at room temperature (18–22 °C) using the two-electrode voltage clamp (TEVC) technique. Data were obtained using a GeneClamp 500 amplifier (Axon Instruments, USA), and Clampex9 software (Axon Instruments), responsible for data acquisition and storage. Glass micropipettes were produced using glass capillaries (borosilicate WPI 1B120-6) and drawn in a WPI (World Precision Instruments, USA) manual stretcher. The bath and perfusion solutions were either the previously described ND96 (Nav and Kv channels) or calcium-free ND96 supplemented with 10 mM BaCl2 (Cav channels).
(§3) Whole-cell currents of oocytes were recorded 1 to 3 days after injection. Current and voltage electrodes were filled with 3 M KCl and their resistance was adjusted from 0.7 to 2.0 MΩ. Currents were sampled at 20 kHz (Nav channels) and 10 kHz (Kv and Cav channels) and filtered using a four-pole Bessel low-pass Bessel filter, at 1 kHz for sodium, and […] for potassium and calcium, except for the hERG ion channel, in which the currents were filtered at 1 kHz. Leak subtraction was performed using a -P/4 protocol. Kv1.x currents were evoked by 500 ms depolarizations to 0 mV followed by a 500-ms pulse to − 50 mV, from a holding potential of − 90 mV. Kv2.1, Kv3.1, and Kv4.2 currents were elicited by 500 ms pulses to + 20 mV from a holding potential of − 90 mV. Current traces of Kv10.1 were elicited by 2 s depolarization to 0 mV, from a holding potential of − 90 mV. Current traces of hERG1 channel were elicited by applying a + 40 mV prepulse for 2 s followed by a step of − 120 mV for 2 s. Sodium current traces were evoked by a 100 ms depolarization to 0 mV, from a holding potential of − 90 mV. The current–voltage (IV) relationships were determined by 100-ms step depolarizations between − 90 and + 40 mV, using 5 mV increments. […]

hNav1.5 = assay: TEVC inhibition, Nav1.5; assay type: cell-based, human; details: 1 µM, Xenopus oocytes, ND96, 18–22 °C, mean ± SEM, n ≥ 3
Excerpt: (§4) For the expression of Kv channels rat Kv1.1 (GenBank accession number: NM_173095 [88, 89]), rKv1.2 (NM_012970 [90, 91]), human Kv1.3 (NM_002232 [92, 93]), rKv1.4 (NM_012971 [94, 95]), rKv1.6 (NM_023954 [96, 97]), hKv2.1 (NM_004975 [98, 99]), hKv3.1 (NM_004976 [100, 101]), rKv4.2 (NM_031739 [102, 103]), hKv10.1 (NM_172362 [104, 105]), hERG1 [Kv11.1, (NM_000238 [106, 107])], and Shaker IR [from Drosophila melanogaster, (NM_167595 [108, 109])], Nav channels [rNav1.2 (NM_012647 [42, 110]), rNav1.4 (NM_013178 [111, 112]), hNav1.5 (NM_198056 [113, 114]), mNav1.6 (NM_001077499 [115, 116]), BgNav [from Blattella germanica, (DQ466887 [117, 118])] and the auxiliary subunits rβ1 (NM_001271045 [119, 120]), hβ1 (NM_001037 [121, 122]), and TipE [from D. melanogaster, (NM_079196 [109, 123])], and Cav channels hCav3.1 [124, 125], hCav3.2 [126, 127], and hCav3.3 [128, 129] in Xenopus oocytes, the linearized plasmids were transcribed using the T7 or SP6 mMESSAGEmMACHINE transcription kit (Ambion, Austin, TX, USA). […]
(§5) Whole-cell currents of oocytes were recorded 1 to 3 days after injection. […] The current–voltage (IV) relationships were determined by 100-ms step depolarizations between − 90 and + 40 mV, using 5 mV increments. […]

Shaker IR = assay: TEVC inhibition, Shaker IR; assay type: cell-based, Drosophila melanogaster; set-up: unit not given here; details: 1 µM
Excerpt: as §1, §2, §3

hCav3.2 = assay: TEVC inhibition, Cav3.2; assay type: cell-based, human; set-up: unit not given here; details: 1 µM
Excerpt: as §1, §2, §3

hKv3.1 = assay: TEVC inhibition, Kv3.1; assay type: cell-based, human; set-up: unit not given here; details: 1 µM
Excerpt: as §1, §2, §3

hKv2.1 = assay: TEVC inhibition, Kv2.1; assay type: cell-based, human; set-up: unit not given here; details: 1 µM
Excerpt: as §1, §2, §3

rNav1.4 = assay: TEVC inhibition, Nav1.4; assay type: cell-based, rat; details: 1 µM, Xenopus oocytes, ND96, 18–22 °C, mean ± SEM, n ≥ 3
Excerpt: as §4, §5

mNav1.6 = assay: TEVC current-voltage relationship (Vhalf), Nav1.6; assay type: cell-based, mouse; set-up: Vhalf, toxin inactivation, Nav1.6 / Vhalf, toxin activation, Nav1.6: unit not given here; details: for Vhalf activation shift, Nav1.6: 1 µM versus control (ND96); for Vhalf, toxin activation, Nav1.6 / Vhalf, toxin inactivation, Nav1.6: 1 µM
Excerpt: as §1, §2, §3

BgNav = assay: TEVC current-voltage relationship (Vhalf), BgNav; assay type: cell-based, Blattella germanica; set-up: Vhalf, toxin inactivation, BgNav / Vhalf, toxin activation, BgNav: unit not given here; details: for Vhalf, toxin activation, BgNav / Vhalf, toxin inactivation, BgNav: 1 µM
Excerpt: as §1, §2, §3

## RLFCIRHHKYCGHRPKRCCSGLFCRCNTFGTNCRCQSKGALGKLI (disulfide 4-19, 11-24, 18-35, 26-33) [xib1]
hKv10.1; replicate 1
  Inhibition data, Kv10.1: 0.0
hKv10.1; replicate 2
  Inhibition data, Kv10.1: 0.0
hKv10.1; replicate 3
  Inhibition data, Kv10.1: 0.0
hKv10.1; replicate 4
  Inhibition data, Kv10.1: 0.0
hNav1.5
  inhibition of Nav1.5: 26.1 ± 1.8%
Shaker IR; replicate 1
  Inhibition data, Shaker: 0.0
Shaker IR; replicate 2
  Inhibition data, Shaker: 0.0
Shaker IR; replicate 3
  Inhibition data, Shaker: 0.0
Shaker IR; replicate 4
  Inhibition data, Shaker: 0.0
hCav3.2; replicate 1
  Inhibition data, Cav3.2: 0.0
hCav3.2; replicate 2
  Inhibition data, Cav3.2: 0.0
hCav3.2; replicate 3
  Inhibition data, Cav3.2: 0.0
hCav3.2; replicate 4
  Inhibition data, Cav3.2: 0.0
hKv3.1; replicate 1
  Inhibition data, Kv3.1: 0.0
hKv3.1; replicate 2
  Inhibition data, Kv3.1: 0.0
hKv3.1; replicate 3
  Inhibition data, Kv3.1: 0.0
hKv3.1; replicate 4
  Inhibition data, Kv3.1: 0.0
hKv2.1; replicate 1
  Inhibition data, Kv2.1: 0.0
hKv2.1; replicate 2
  Inhibition data, Kv2.1: 0.0
hKv2.1; replicate 3
  Inhibition data, Kv2.1: 0.0
hKv2.1; replicate 4
  Inhibition data, Kv2.1: 0.0
rNav1.4
  inhibition of Nav1.4: 21.8 ± 3.3%
mNav1.6
  Vhalf activation shift, Nav1.6: 1.9 mV
mNav1.6; replicate 1
  Vhalf, toxin activation, Nav1.6: -19.6324
  Vhalf, toxin inactivation, Nav1.6: -54.1984
mNav1.6; replicate 2
  Vhalf, toxin activation, Nav1.6: -25.3795
  Vhalf, toxin inactivation, Nav1.6: -54.8159
mNav1.6; replicate 3
  Vhalf, toxin activation, Nav1.6: -25.7195
  Vhalf, toxin inactivation, Nav1.6: -56.7966
mNav1.6; replicate 4
  Vhalf, toxin activation, Nav1.6: -23.7149
  Vhalf, toxin inactivation, Nav1.6: -53.558
BgNav; 1 µM versus control (ND96)
  Vhalf activation shift, BgNav: 2.1 mV
BgNav; replicate 1
  Vhalf, toxin activation, BgNav: -20.8516
  Vhalf, toxin inactivation, BgNav: -45.0763
BgNav; replicate 2
  Vhalf, toxin activation, BgNav: -24.1418
  Vhalf, toxin inactivation, BgNav: -46.3574
BgNav; replicate 3
  Vhalf, toxin activation, BgNav: -27.3818
  Vhalf, toxin inactivation, BgNav: -51.0148
BgNav; replicate 4
  Vhalf, toxin activation, BgNav: -26.78

## KRSCIRRFGRCDHRPNDCCYNSSCRCNLWGSNCRCQRMGLFQKWGK (disulfide 4-19, 11-24, 18-35, 26-33) [xib13]
hKv10.1; replicate 1
  Inhibition data, Kv10.1: 0.0
hKv10.1; replicate 2
  Inhibition data, Kv10.1: 0.0
hKv10.1; replicate 3
  Inhibition data, Kv10.1: 0.0
hKv10.1; replicate 4
  Inhibition data, Kv10.1: 0.0
hNav1.5
  inhibition of Nav1.5: 28.2 ± 3.4%
Shaker IR; replicate 1
  Inhibition data, Shaker: 0.0
Shaker IR; replicate 2
  Inhibition data, Shaker: 0.0
Shaker IR; replicate 3
  Inhibition data, Shaker: 0.0
Shaker IR; replicate 4
  Inhibition data, Shaker: 0.0
hCav3.2; replicate 1
  Inhibition data, Cav3.2: 0.0
hCav3.2; replicate 2
  Inhibition data, Cav3.2: 0.0
hCav3.2; replicate 3
  Inhibition data, Cav3.2: 0.0
hCav3.2; replicate 4
  Inhibition data, Cav3.2: 0.0
hKv3.1; replicate 1
  Inhibition data, Kv3.1: 0.0
hKv3.1; replicate 2
  Inhibition data, Kv3.1: 0.0
hKv3.1; replicate 3
  Inhibition data, Kv3.1: 0.0
hKv3.1; replicate 4
  Inhibition data, Kv3.1: 0.0
hKv2.1; replicate 1
  Inhibition data, Kv2.1: 0.0
hKv2.1; replicate 2
  Inhibition data, Kv2.1: 0.0
hKv2.1; replicate 3
  Inhibition data, Kv2.1: 0.0
hKv2.1; replicate 4
  Inhibition data, Kv2.1: 0.0
rNav1.4
  inhibition of Nav1.4: 33.0 ± 2.4%
mNav1.6
  Vhalf activation shift, Nav1.6: 0.5 mV
mNav1.6; replicate 1
  Vhalf, toxin activation, Nav1.6: -22.599
  Vhalf, toxin inactivation, Nav1.6: -56.1011
mNav1.6; replicate 2
  Vhalf, toxin activation, Nav1.6: -28.3204
  Vhalf, toxin inactivation, Nav1.6: -61.4261
mNav1.6; replicate 3
  Vhalf, toxin activation, Nav1.6: -27.6893
  Vhalf, toxin inactivation, Nav1.6: -56.3883
mNav1.6; replicate 4
  Vhalf, toxin activation, Nav1.6: -20.1785
  Vhalf, toxin inactivation, Nav1.6: -49.5801
BgNav; 1 µM versus control (ND96)
  Vhalf activation shift, BgNav: 7.7*** mV
  Vhalf inactivation shift, BgNav: 0.2 mV
BgNav; replicate 1
  Vhalf, toxin activation, BgNav: -17.0858
  Vhalf, toxin inactivation, BgNav: -50.0173
BgNav; replicate 2
  Vhalf, toxin activation, BgNav: -22.9798
  Vhalf, toxin inactivation, BgNav: -54.2542
BgNav; replicate 3
  Vhalf, toxin activation, BgNav: -20.8319
  Vhalf, toxin inactivation, BgNav: -48.9373
BgNav; replicate 4
  Vhalf, toxin activation, BgNav: -18.4734
  Vhalf, toxin inactivation, BgNav: -48.3513
